Data: patent US9273304B2, “Inactivation method” (Thermo Fisher Scientific Baltics UAB, priority 2006, dated 2016)

Columns and labels:
Type in all cases: biochemical
Taq DNA polymerase [1] = target: T1, Taq DNA polymerase (Thermus aquaticus, UniProt P19821); experiment: Temperature effect on activity of modified versus unmodified Taq DNA polymerase; conditions: FIG. 7
Experimental: The activity assay for both DNA polymerases was as described in the Example 2 with the following modifications: • 1. DNA polymerization using the unmodified DNA polymerase was carried out in the buffer of the following composition: 10 mM Tris-HCl (pH 8.8 at 25° C.), 50 mM KCl, 1.5 mM MgCl2, and 0.08% Nonidet P40. • 2. DNA polymerization using the modified DNA polymerase was carried out in the buffer of the following composition: 20 mM Tris-HCl (pH 8.3 at 25° C.), 20 mM KCl, 5 mM (NH4)2SO4, and 1.5 mM MgCl2.
Enzyme activities at different temperatures were normalized to the activity of the unmodified Taq DNA polymerase at 70° C.

[2] = system: CFTR gene / insulin gene, human DNA; experiment: PCR comparison with commercial hot-start Taq DNA polymerases (sensitivity, Fast PCR, extension time)
Experimental: Sets of PCR reactions were carried out in the Mastercycler (Eppendorf). The reactions were carried out with the following amounts of DNA polymerases: 0.3125 activity units, 0.625 activity units, 1.25 activity units, and 2.5 activity units. These sets of PCR were performed under conditions optimal for each DNA polymerase. The buffers for both the modified DNA polymerase of the current invention and the unmodified DNA polymerase were described in the Examples 7 and 11, while the buffers for the commercial DNA polymerases were those recommended by the vendors. All experiments were performed in the presence of 0.2 mM dNTP, 0.5 μM of each primers and human DNA (100 ng/50 μl). The PCR primers for amplification of the CFTR gene were described in the Example 8.
The PCR components were mixed at room temperature and the reaction was carried using the following cycling profile: 95° C.—4 min; (95° C.—0.5 min, 50° C.—0.5 min, 72° C.—1 min)—40 cycles; 72° C.—7 min, with the exception of the experiments with the HotStarTaq DNA polymerase, were 15 min pre-incubation at 95° C. was used, as recommended by the vendor.
Amplifications and analysis of reaction products were performed as described in the Example 12. The 1.25 activity units of each polymerase were used in the PCR. The following amounts of human DNA were used as templates in the PCR: 0.1 ng, 1 ng, 10 ng, and 100 ng.
Amplifications and analysis of PCR products were performed as described in the Example 12. The 1.25 activity units of each polymerase were used in the PCR. The set of PCR reactions was carried out at 20, 25, 30, 35 and 40 thermal cycles. respectively.
Sets of PCR reactions were carried out in the GeneAmp® PCR System 9700 (Applied Biosystems). The reactions were carried out with 1 activity unit of DNA polymerases. These sets of PCR reactions were performed in 20 μl of the buffers optimal for each. DNA polymerase. The buffers for the modified Tag polymerase and the unmodified Taq DNA polymerases were described in the Examples 7 and 11, while the buffers for the commercial DNA polymerases were those recommended by the vendors. The following commercial DNA polymerases were chosen for comparison: the FastStart Taq DNA polymerase (Roche), the AmpliTaq Gold DNA polymerase (Applied Biosystems), and the HotStarTaq DNA polymerase (Qiagen). All experiments were performed in the presence of 0.2 mM dNTP, 0.5 μM of each PCR primer and human DNA (40 ng/20 μl). The following primers were used for amplification of the insulin gene: […]
The PCR components were mixed in thin-walled PCR tubes on ice and the 500 bp amplicon was generated using the following reaction profile: 95° C.—30 s; (95° C.—0 s, 62° C.—12 s)—30 cycles; 72° C.—10 s.
Amplifications and analysis of PCR products were performed as described in the Example 12. […]

Taq DNA polymerase [3] = target: T1, Taq DNA polymerase; experiment: 5′-3′ exonuclease activity: cleavage of 5′-labelled oligonucleotide duplexes at 37° C.; conditions: 4 hours, with or without dNTPs, FIG. 9, part B
Experimental: The exonuclease activity was determined using the following labeled complementary oligonucleotides: [SEQ ID NO: 3] 5′-[…]-3′ and [SEQ ID NO: 4] 5′-[…]-3′. Equal amounts (10 units) of the unmodified enzyme and the modified enzyme were incubated with the oligonucleotide duplexes for 4 hours at 37° C. in 10 μl of reaction buffer. Activity of the unmodified Taq DNA polymerase was tested in the following buffer: 75 mM Tris-HCl (pH 8.8 at 25° C.), 20 mM (NH4)SO4, 0.01% Tween20, and 2 mM MgCl2, while the buffer composition to test the modified Taq DNA polymerase was the following: 20 mM Tris-HCl (pH 8.3 at 25° C.), 20 mM KCl, 5 mM (NH4)SO4, and 2 mM MgCl2. Both reaction mixtures were tested either in the presence or in the absence of dNTPs.
Reactions were terminated by addition of 5 μl of a “stop” solution (95% (v/v) formamide and 0.01% bromophenol blue). After heating at 95° C. for 2 minutes, the samples were cooled in ice, and then they were loaded onto 15% denaturing acrylamide gel (29:1 acrylamide/bisacrylamide). Electrophoresis was performed in 89 mM Tris-borate (pH8.3 at 37° C.) supplemented with 2 mM EDTA for one hour at ˜50 V/cm. After electrophoresis, the gels were fixed in 10% acetic acid and dried. The gels were analyzed using Cyclone Storage Phosphor System and OptiQuant™ Image Analysis Software.

T1 sequence (P19821 whole entry): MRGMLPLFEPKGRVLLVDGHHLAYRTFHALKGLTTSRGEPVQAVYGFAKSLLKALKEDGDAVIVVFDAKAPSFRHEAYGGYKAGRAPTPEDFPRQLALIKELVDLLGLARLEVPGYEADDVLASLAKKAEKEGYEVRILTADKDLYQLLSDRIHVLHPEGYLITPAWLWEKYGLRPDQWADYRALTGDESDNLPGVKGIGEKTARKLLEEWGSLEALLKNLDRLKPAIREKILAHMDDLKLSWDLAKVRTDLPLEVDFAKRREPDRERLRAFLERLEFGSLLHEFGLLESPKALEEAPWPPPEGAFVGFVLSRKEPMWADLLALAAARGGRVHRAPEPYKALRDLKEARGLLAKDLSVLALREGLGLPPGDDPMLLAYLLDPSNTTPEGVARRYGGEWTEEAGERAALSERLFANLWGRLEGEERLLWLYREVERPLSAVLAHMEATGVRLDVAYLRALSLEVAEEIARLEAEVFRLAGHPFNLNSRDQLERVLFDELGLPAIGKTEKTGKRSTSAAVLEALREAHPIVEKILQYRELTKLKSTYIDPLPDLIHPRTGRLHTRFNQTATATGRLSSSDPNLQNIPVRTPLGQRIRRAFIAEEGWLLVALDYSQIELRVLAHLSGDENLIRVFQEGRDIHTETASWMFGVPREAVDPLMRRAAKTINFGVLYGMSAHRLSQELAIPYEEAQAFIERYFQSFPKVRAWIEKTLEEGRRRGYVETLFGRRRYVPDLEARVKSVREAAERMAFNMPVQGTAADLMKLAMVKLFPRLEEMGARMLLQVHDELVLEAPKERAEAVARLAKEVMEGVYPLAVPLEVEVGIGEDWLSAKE

Substance: Taq DNA polymerase modified with N-etoxycarbonyl-2,3-dimethylmaleinimide: Recombinant Taq DNA polymerase reversibly inactivated by reaction with N-ethoxycarbonyl-2,3-dimethylmaleinimide in aqueous solution (preferred molar ratio 1/110)
- residual activity at 70° C. (Taq DNA polymerase [1]; 70° C., normalized to unmodified Taq DNA polymerase at 70° C.): ~20%
- activity at different temperatures up to 50° C. (Taq DNA polymerase [1]; up to 50° C., without reactivation): practically inactive
- performance in the “Fast PCR” application, compared with DNA polymerases from other vendors ([2]; FIG. 14): superior performance
- primer extension time, compared with DNA polymerases from other vendors ([2]; FIG. 15): shorter
- PCR sensitivity regarding the enzyme concentration, compared with DNA polymerases from other vendors ([2]; versus HotStarTaq, AmpliTaq Gold, FastStart Taq, FIG. 11): higher sensitivity
- PCR sensitivity regarding the target DNA concentration, compared with DNA polymerases from other vendors ([2]; versus HotStarTaq, AmpliTaq Gold, FastStart Taq, FIG. 12): higher sensitivity
- 5′-3′ exonuclease activity (Taq DNA polymerase [3]): practically devoid of exonuclease activity
